Results published in ChEMBL document CHEMBL1141855, “Trypargine alkaloids from a previously undescribed Eudistoma sp. ascidian” (J Nat Prod, 1999).

Test: Toxicity in iv dosed mouse
Format: organism-based
Details: in vivo

`N=C(N)NCCCC1NCCc2c1[nH]c1ccccc21` (stereo unspecified) [TRYPARGINE] gave an LD50 of 16.9 mg/kg.
